According to ChEMBL document CHEMBL4680265, “Anti-tubulin agent vinorelbine inhibits metastasis of cancer cells by regulating epithelial-mesenchymal transition” (Eur J Med Chem, 2020):
Activity calls are given as the source filed them.

Legend:
HepG2 [1] = assay: Inhibition of epithelial-mesenchymal transition in human HepG2 cells assessed as decrease in Vimentin expression at 0.1 to 10 uM by Western blot analysis; assay type: functional, cell-based; details: dose 0.1-10 µM
HepG2 [2] = assay: Induction of apoptosis in human HepG2 cells assessed as decrease in Bcl-xl expression at 0.1 to 10 uM incubated for 48 hrs by Western blot analysis; assay type: functional, cell-based; details: dose 0.1-10 µM
HCT-116 [3] = assay: Antimigratory activity against human HCT-116 cells assessed as reduction in migration at 10 nM measured after 96 hrs by scratch wound healing based inverted microscopic analysis relative to control; assay type: functional
HepG2 [4] = assay: Induction of apoptosis in human HepG2 cells assessed as increase in late apoptotic cells at 0.1 to 10 uM incubated for 48 hrs by annexin V-FITC and PI staining based flow cytometry analysis; assay type: functional, cell-based; details: dose 0.1-10 µM
HCT-116 [5] = assay: Inhibition of epithelial-mesenchymal transition in human HCT-116 cells assessed as downregulation of MMP-2 by Western blot analysis; assay type: functional, cell-based; details: dose 0.01-1 µM
NCI-H1975 [6] = assay: Inhibition of epithelial-mesenchymal transition in human NCI-H1975 cells assessed as decrease in N-cadherin expression at 1 to 100 nM by Western blot analysis; assay type: functional, cell-based; details: dose 1-100 nM
HepG2 [7] = assay: Inhibition of colony formation in human HepG2 cells at 0.1 to 10 uM incubated for 3 to 4 days by crystal violet staining based assay; assay type: functional, cell-based; details: dose 0.1-10 µM, time 3-4 day
NCI-H1975 [8] = assay: Antiinvasive activity against human NCI-H1975 cells assessed as reduction in invasion at 1 to 10 nM measured after 48 hrs by DAPI staining based transwell assay; assay type: functional, cell-based; details: dose 1-10 nM
HCT-116 [9] = assay: Induction of apoptosis in human HCT-116 cells assessed as increase in Bax expression at 0.01 to 1 uM incubated for 48 hrs by Western blot analysis; assay type: functional, cell-based; details: dose 0.01-1 µM
NCI-H1975 [10] = assay: Inhibition of epithelial-mesenchymal transition in human NCI-H1975 cells assessed as downregulation of MMP-2 by Western blot analysis; assay type: functional, cell-based; details: dose 1-100 nM
NCI-H1975 [11] = assay: Induction of apoptosis in human NCI-H1975 cells assessed as decrease in Bcl-xl expression at 1 to 100 nM incubated for 48 hrs by Western blot analysis; assay type: functional, cell-based; details: dose 1-100 nM
HepG2 [12] = assay: Inhibition of epithelial-mesenchymal transition in human HepG2 cells assessed as downregulation of Snail-1 by Western blot analysis; assay type: functional, cell-based; details: dose 0.1-10 µM
HCT-116 [13] = assay: Inhibition of epithelial-mesenchymal transition in human HCT-116 cells assessed as decrease in N-cadherin expression at 0.01 to 1 uM by Western blot analysis; assay type: functional, cell-based; details: dose 0.01-1 µM
HepG2 [14] = assay: Cytotoxicity against human HepG2 cells assessed as effect on cell morphology incubated for 48 hrs by DAPI staining based fluorescence microscopy; assay type: functional; details: dose 0.1-10 µM
HCT-116 [15] = assay: Antimigratory activity against human HCT-116 cells assessed as reduction in migration at 1 nM measured after 96 hrs by scratch wound healing based inverted microscopic analysis relative to control; assay type: functional
HCT-116 [16] = assay: Inhibition of colony formation in human HCT-116 cells at 0.01 to 1 uM incubated for 3 to 4 days by crystal violet staining based assay; assay type: functional, cell-based; details: dose 0.01-1 µM, time 3-4 day
HCT-116 [17] = assay: Induction of apoptosis in human HCT-116 cells assessed as increase in late apoptotic cells at 0.01 to 1 uM incubated for 48 hrs by annexin V-FITC and PI staining based flow cytometry analysis; assay type: functional, cell-based; details: dose 0.01-1 µM
HCT-116 [18] = assay: Cytotoxicity against human HCT-116 cells assessed as reduction in cell viability incubated for 48 hrs by MTT assay; assay type: functional, cell-based; details: HCT-116, 48 h
HepG2 [19] = assay: Antiinvasive activity against human HepG2 cells assessed as reduction in invasion at 0.1 to 10 nM measured after 48 hrs by DAPI staining based transwell assay; assay type: functional, cell-based; details: dose 0.1-10 nM
NCI-H1975 [20] = assay: Induction of apoptosis in human NCI-H1975 cells assessed as increase in Bax expression at 1 to 100 nM incubated for 48 hrs by Western blot analysis; assay type: functional, cell-based; details: dose 1-100 nM
HCT-116 [21] = assay: Cytotoxicity against human HCT-116 cells assessed as effect on cell morphology incubated for 48 hrs by DAPI staining based fluorescence microscopy; assay type: functional; details: dose 0.01-1 µM
HCT-116 [22] = assay: Induction of cell cycle arrest in human HCT-116 cells assessed as increase in G2/M phase accumulation at 0.01 to 1 uM incubated for 24 hrs by propidium iodide staining based flow cytometry analysis; assay type: functional; details: dose 0.01-1 µM
NCI-H1975 [23] = assay: Inhibition of epithelial-mesenchymal transition in human NCI-H1975 cells assessed as increase in E-cadherin expression at 1 to 100 nM by Western blot analysis; assay type: functional, cell-based; details: dose 1-100 nM
HepG2 [24] = assay: Inhibition of epithelial-mesenchymal transition in human HepG2 cells assessed as downregulation of MMP-2 by Western blot analysis; assay type: functional, cell-based; details: dose 0.1-10 µM
HCT-116 [25] = assay: Induction of apoptosis in human HCT-116 cells assessed as decrease in Bcl-2 expression at 0.01 to 1 uM incubated for 48 hrs by Western blot analysis; assay type: functional, cell-based; details: dose 0.01-1 µM
NCI-H1975 [26] = assay: Inhibition of epithelial-mesenchymal transition in human NCI-H1975 cells assessed as increase in Vimentin expression at 1 to 100 nM by Western blot analysis; assay type: functional, cell-based; details: dose 1-100 nM
HCT-116 [27] = assay: Induction of apoptosis in human HCT-116 cells assessed as decrease in Bcl-xl expression at 0.01 to 1 uM incubated for 48 hrs by Western blot analysis; assay type: functional, cell-based; details: dose 0.01-1 µM
HepG2 [28] = assay: Inhibition of epithelial-mesenchymal transition in human HepG2 cells assessed as downregulation of MMP-9 by Western blot analysis; assay type: functional, cell-based; details: dose 0.1-10 µM
HCT-116 [29] = assay: Inhibition of epithelial-mesenchymal transition in human HCT-116 cells assessed as downregulation of Snail-1 by Western blot analysis; assay type: functional, cell-based; details: dose 0.01-1 µM
HepG2 [30] = assay: Induction of cell cycle arrest in human HepG2 cells assessed as decrease in cyclin B1 level at 0.1 to 10 uM incubated for 24 hrs by Western blot analysis; assay type: functional, cell-based; details: dose 0.1-10 µM

CCC1=C[C@@H]2CN(C1)Cc1c([nH]c3ccccc13)[C@@](C(=O)OC)(c1cc3c(cc1OC)N(C)[C@H]1[C@@](O)(C(=O)OC)[C@H](OC(C)=O)[C@]4(CC)C=CCN5CC[C@]31[C@@H]54)C2 [VINORELBINE]
inactive: inhibition (HepG2 [1])
13%: inhibition at 0.001 µM (HCT-116 [15])
50.9%: inhibition at 0.01 µM (HCT-116 [3])
active: Activity (HepG2 [2]) | Activity (HepG2 [4]) | inhibition (HCT-116 [5]) Dose-dependent effect | inhibition (NCI-H1975 [6]) | inhibition (HepG2 [7]) | inhibition (NCI-H1975 [8]) | Activity (HCT-116 [9]) | inhibition (NCI-H1975 [10]) Dose-dependent effect | Activity (NCI-H1975 [11]) | inhibition (HepG2 [12]) Dose-dependent effect | inhibition (HCT-116 [13]) | Activity (HepG2 [14]) Dose-dependent effect | inhibition (HCT-116 [16]) | Activity (HCT-116 [17]) | inhibition (HepG2 [19]) | Activity (NCI-H1975 [20]) | Activity (HCT-116 [21]) Dose-dependent effect | Activity (HCT-116 [22]) | inhibition (NCI-H1975 [23]) | inhibition (HepG2 [24]) Dose-dependent effect | Activity (HCT-116 [25]) | inhibition (NCI-H1975 [26]) | Activity (HCT-116 [27]) | inhibition (HepG2 [28]) Dose-dependent effect | inhibition (HCT-116 [29]) Dose-dependent effect | Activity (HepG2 [30])
14.9 nM: IC50 (HCT-116 [18])
